Experimental data: US12649746B2, “Ketorolaco derivative, pharmaceutical composition and preparation method therefor and use thereof” (NANJING HERON PHARMACEUTICAL SCIENCE AND TECHNOLOGY CO., …, priority 2020, dated 2026)
“Also recorded” adds a separate entry of the source. Read-outs that look alike come from different tables or passages of the source.

Columns and labels:
in vitro = conditions: human, plasma
[1] = By-product toxicity test (metabolic byproducts in the human body); conditions: for Metabolic by-products in human body: by the metabolic pathways of the compounds in the human body; for Toxicity: toxicity of the metabolic by-products in human body
[2] = High temperature stability study of compounds (60° C.); assay type: physicochemical; conditions: in the dark; for Ketorolac (%): related substance
Protocol: Test protocol: the compounds prepared in the present disclosure were placed in a colorless and transparent vial, placed in the dark at a high temperature (60° C.), and were sampled for day 0, day 5 and day 10, respectively, and the purity of the compounds and the change of the related substance (ketorolac) were determined.

[3] = human, 97.6 µM
[4] = Enzymolysis kinetics experiment of compounds in plasma; conditions: for Content of the compound %: 37° C.; for half-life at 97.6 µM: human, plasma
[5] = cited from earlier work
[6] = cited from earlier work; remark: listed apart in the source
[7] = oral administration and intramuscular injection

| Compound | half-life at 97.6 µM (in vitro) | Total main peak purity (%) ([2]; Day 0) | Total main peak purity (%) ([2]; Day 5) | Total main peak purity (%) ([2]; Day 10) | Ketorolac (%) ([2]; Day 0) | Ketorolac (%) ([2]; Day 5) | Ketorolac (%) ([2]; Day 10) | Content of ketorolac % ([3]; 0 min) | Content of the compound % ([3]; 0 min) | Content of ketorolac % ([3]; 15 min) | Content of the compound % ([3]; 15 min) | Content of ketorolac % ([3]; 30 min) | Content of the compound % ([3]; 30 min) | Content of ketorolac % ([3]; 60 min) | Content of the compound % ([3]; 60 min) | Content of ketorolac % ([3]; 120 min) | Content of the compound % ([3]; 120 min) | Metabolic by-products in human body [1] | Toxicity [1] | other results |
| --- | --- | --- | --- | --- | --- | --- | --- | --- | --- | --- | --- | --- | --- | --- | --- | --- | --- | --- | --- | --- |
| CCCCCCC(=O)OC(C)OC(=O)C1CCn2c(C(=O)c3ccccc3)ccc21 (stereo not drawn) [N27] |  |  |  |  |  |  |  |  |  |  |  |  |  |  |  |  |  | Acetaldehyde and n-heptanoic acid | low | Content of the compound % ([4]; human plasma, 1 min): 100%; Content of the compound % ([4]; human plasma, 15 min): 100%; Content of the compound % ([4]; human plasma, 30 min): 90.63 ± 1.81%; Content of the compound % ([4]; human plasma, 60 min): 63.89 ± 1.20%; Content of the compound % ([4]; human plasma, 120 min): 35.75 ± 1.46%; half-life at 97.6 µM [4]: 73.9 min |
| CCCCCCCCOC(=O)OC(C)OC(=O)C1CCn2c(C(=O)c3ccccc3)ccc21 (stereo not drawn) [N26] | 177 min |  |  |  |  |  |  |  |  | 0% | 100% | 3.89 ± 0.61% | 95.48 ± 1.56% | 8.60 ± 0.33% | 89.20 ± 1.67% | 24.34 ± 0.90% | 68.99 ± 1.45% |  | n-octanol is more toxic | Content of ketorolac % ([3]; 1 min): 0%; Content of the compound % ([3]; 1 min): 100% |
| CCC(=O)OC(CC)OC(=O)C1CCn2c(C(=O)c3ccccc3)ccc21 (stereo not drawn) [N8] | 16.9 min | 93.15% | 93.30% | 92.34% | 0.18% | 0.42% | 0.96% | 0% | 100 ± 1.782% | 19.140 ± 1.467% | 69.713 ± 6.985% | 36.277 ± 3.301% | 42.467 ± 2.983% | 53.130 ± 2.171% | 8.777 ± 0.560% | 65.997 ± 3.446% | 0% |  | low toxicity of byproducts; also recorded: relatively low |  |
| CCC(OC(=O)OC(C)C)OC(=O)C1CCn2c(C(=O)c3ccccc3)ccc21 (stereo not drawn) [N16] | 31.6 min | 97.33% | 96.50% | 96.16% | 0.05% | 0.07% | 0.07% | 0% | 100 ± 4.001% | 9.847 ± 2.479% | 82.710 ± 1.909% | 28.653 ± 0.277% | 65.987 ± 0.506% | 56.793 ± 2.096% | 35.437 ± 1.960% | 70.443 ± 4.274% | 7.047 ± 0.374% |  |  |  |
| CC(OC(=O)C1CCn2c(C(=O)c3ccccc3)ccc21)OC(=O)C1CCn2c(C(=O)c3ccccc3)ccc21 (stereo not drawn) [N22] |  |  |  |  |  |  |  |  |  |  |  |  |  |  |  |  |  | Acetaldehyde | relatively low toxicity of byproducts | metabolic rates (in words) ([4]; summary statement, metabolized in a human body): slow metabolic rates |
| CCC(=O)OC(C)OC(=O)C1CCn2c(C(=O)c3ccccc3)ccc21 (stereo not drawn) [N4] |  | 98.91% | 98.38% | 98.04% | 0.12% | 0.17% | 0.14% |  |  |  |  |  |  |  |  |  |  | Acetaldehyde and propionic acid | relatively low |  |
| O=C(c1ccccc1)c1ccc2n1CCC2C(=O)O (racemic) [Ketorolac, (±)-5-benzoyl-2,3-dihydro-1H-pyrrolizine-1-carboxylic acid] |  |  |  |  |  |  |  |  |  |  |  |  |  |  |  |  |  |  |  | elimination half-life ([5]; elderly patients): 360 to 420 min; binding rate to plasma protein ([5]; in vivo): more than 99%; distribution volume ([5]; in vivo): 0.1 to 0.3 L/kg; elimination half-life ([5]; in vivo): 240 to 360 min; original drug and metabolites excreted with the urine ([5]; in vivo): about 90%; total clearance rate ([5]; in vivo): 0.5 mL/min/kg; effective treatment plasma concentration [5, 7]: 0.3 to 5 µg/mL; peak concentration time of the plasma concentration [5, 7]: 20 to 60 min; elimination half-life ([5]; renal insufficiency patients): 540 to 600 min; analgesic activity relative to aspirin ([6]; times that of aspirin): 800 times; analgesic activity relative to indomethacin ([6]; times that of indomethacin): 60 times; analgesic activity relative to morphine ([6]; times that of morphine): 0.4 times |
| CCOC(=O)OC(CC)OC(=O)C1CCn2c(C(=O)c3ccccc3)ccc21 (stereo not drawn) [N15] |  | 96.30% | 95.87% | 95.59% | 0.08% | 0.09% | 0.14% | 1.727 ± 1.502% | 99.560 ± 2.324% | 23.933 ± 1.119% | 76.800 ± 2.423% | 50.917 ± 1.868% | 46.680 ± 2.229% | 83.957 ± 3.139% | 12.760 ± 1.133% | 96.910 ± 3.848% | 0.893 ± 0.051% |  |  | half-life at 97.6 µM [4]: 16.9 min |
| CC(=O)OC(C)OC(=O)C(C)c1ccc(-c2ccccc2)c(F)c1 (stereo not drawn) [FPA, flurbiprofen axetil, reference compound] | 40.8 min |  |  |  |  |  |  |  |  |  |  |  |  |  |  |  |  |  |  | degradation / metabolic rate in human plasma (in words) ([4]; human plasma, up to 120 min): could be metabolized faster |

Now from value to compound, other results behind:

| half-life at 97.6 µM (in vitro) | Total main peak purity (%) ([2]; Day 0) | Total main peak purity (%) ([2]; Day 5) | Total main peak purity (%) ([2]; Day 10) | Ketorolac (%) ([2]; Day 0) | Ketorolac (%) ([2]; Day 5) | Ketorolac (%) ([2]; Day 10) | Content of ketorolac % ([3]; 0 min) | Content of the compound % ([3]; 0 min) | Content of ketorolac % ([3]; 15 min) | Content of the compound % ([3]; 15 min) | Content of ketorolac % ([3]; 30 min) | Content of the compound % ([3]; 30 min) | Content of ketorolac % ([3]; 60 min) | Content of the compound % ([3]; 60 min) | Content of ketorolac % ([3]; 120 min) | Content of the compound % ([3]; 120 min) | Compound | Metabolic by-products in human body [1] | Toxicity [1] | other results |
| --- | --- | --- | --- | --- | --- | --- | --- | --- | --- | --- | --- | --- | --- | --- | --- | --- | --- | --- | --- | --- |
| 38.6 min | 95.58% | 95.21% | 94.82% | 0.03% | 0.04% | 0.05% | 1.050 ± 0.079% | 98.950 ± 3.765% | 8.860 ± 0.426% | 88.103 ± 2.289% | 20.993 ± 0.561% | 72.813 ± 2.707% | 34.590 ± 1.381% | 47.510 ± 1.739% | 59.790 ± 2.019% | 12.573 ± 0.260% | CC(C)OC(=O)OC(C)OC(=O)C1CCn2c(C(=O)c3ccccc3)ccc21 (stereo not drawn) [N2] | Acetaldehyde and isopropyl alcohol | low toxicity of byproducts; also recorded: relatively low |  |
| 14.8 min | 93.84% | 93.59% | 93.36% | 0.03% | 0.07% | 0.07% | 2.033 ± 0.342% | 97.967 ± 6.878% | 34.203 ± 3.165% | 56.277 ± 3.890% | 53.297 ± 1.296% | 25.590 ± 1.131% | 76.623 ± 10.483% | 5.997 ± 0.976% | 87.973 ± 4.045% | 0% | CCOC(=O)OC(C)OC(=O)C1CCn2c(C(=O)c3ccccc3)ccc21 (stereo not drawn) [N12] | Acetaldehyde and acetic acid | low toxicity of byproducts; also recorded: relatively low |  |
| 347 min |  |  |  |  |  |  | 0% | 99.700 ± 2.928% | 0% | 99.813 ± 4.881% | 0% | 89.807 ± 2.538% | 2.270 ± 0.328% | 83.490 ± 9.087% |  |  | CC(C)OC(=O)C1CCn2c(C(=O)c3ccccc3)ccc21 (stereo not drawn) [N11, reference compound] |  |  |  |
|  | 97.46% | 97.62% | 97.37% | 0.14% | 0.15% | 0.17% |  |  |  |  |  |  |  |  |  |  | CC(=O)OC(OC(=O)C1CCn2c(C(=O)c3ccccc3)ccc21)C(C)C (stereo not drawn) [N5] | Isobutyraldehyde and acetic acid |  |  |
|  | 92.45% | 90.83% | 90.36% | 0.11% | 0.15% | 0.17% |  |  |  |  |  |  |  |  |  |  | CCC(OC(C)=O)OC(=O)C1CCn2c(C(=O)c3ccccc3)ccc21 (stereo not drawn) [N3] | Propionaldehyde and acetic acid | relatively low |  |
